Results on one compound are retold here after ChEMBL document CHEMBL5543100 (Eur J Med Chem, 2024).

The term IC50 denotes the midpoint of a concentration-inhibition curve. The low end stands for inhibition by little substance, the high end for a need for much substance.

In the assay the test system is OS-RC-2. Kind of assay: cells. The settings on record: Homo sapiens, OS-RC-2, 48 h.

Description: Antiproliferative activity against human OS-RC-2 cells assessed as inhibition of cell growth incubated for 48 hrs

`CNC(=O)c1cc(Oc2ccc(NC(=O)Nc3ccc(Cl)c(C(F)(F)F)c3)cc2)ccn1` [SORAFENIB]: the IC50 is around 9 µM.
